Key:
Solubility of Compound A = assay type: physicochemical
[1] = Oral absorption window in the gastrointestinal tract; assay type: in vivo; details: given orally; upper part of the gastrointestinal tract

## O=C(Cc1c(Cl)c[n+]([O-])cc1Cl)c1ccc(OC(F)F)c2c1OC1(CCS(=O)(=O)CC1)O2 [Compound A, 2-(3,5-Dichloro-1-oxido-pyridine-4-yl)-1-(7-difluoro-methoxy-2′,3′,5′,6-tetrahydro-spiro[1,3-benzodioxole-2,4-(4H)-thiopyran-1′,1′-dioxide]-4-yl)ethanone]
Solubility of Compound A
  Solubility: poorly soluble
[1]
  Absorption window: very narrow absorption window
